Measurements: patent EP2881399B1, “New thiosemicarbazone chelates having anticancer activity” (priority 2013, dated 2015)

Experiments:
Format in all cases: cell-based
[1] = tested on: ECV304 (endothelial) cells; experiment: cytotoxicity test (MTT), IC50 after 72 hours incubation; conditions: incubated for 72 hours
Procedure: (§1) IC50 (the concentration inhibiting the proliferation of 50% of cells) of these 4 new compounds presented is identified by cytotoxicity tests in K562 (leukaemia) and ECV304 (endothelial) cells. Subsequently, it is studied to understand pathway through which the death of the cells is occurred (the mechanism of action) after the cells are treated for 72 hours at these concentrations. The apoptosis is analysed with immununocytochemical methods and flow cytometry and DNA fragmentation is analysed with diphenylamine reaction. […] DNA fragmentation is found high in all experiment groups (70-80%). These rates are compatible with IC50 obtained with MTT test because IC50 is the dose which kills the 50% of the cells. […] Furthermore, this rate is compatible with the percentage of total dead cells (52-64 %) which is the addition of apoptotic and necrotic cells obtained by annexin/PI dyeing.

K562 (leukaemia) cells = experiment: as above
Procedure: as §1

ECV304 = experiment: DNA fragmentation by diphenylamine reaction; conditions: ECV304, end of 72 hours at identified IC50 concentrations
Procedure: (§2) IC50 (the concentration inhibiting the proliferation of 50% of cells) of these 4 new compounds presented is identified by cytotoxicity tests in K562 (leukaemia) and ECV304 (endothelial) cells. Subsequently, it is studied to understand pathway through which the death of the cells is occurred (the mechanism of action) after the cells are treated for 72 hours at these concentrations. The apoptosis is analysed with immununocytochemical methods and flow cytometry and DNA fragmentation is analysed with diphenylamine reaction. […] The inventors also analysed DNA fragmentation rates occurred in cells at the end of 72 hours at identified IC50 concentrations.

K562 = experiment: DNA fragmentation by diphenylamine reaction; conditions: K562, end of 72 hours at identified IC50 concentrations
Procedure: as §2

K562 cells = experiment: flow cytometry with Annexin V and PI dyeing (apoptosis / necrosis); conditions: K562, 72 hours at IC50 concentration; for Living cell (%) / Necrotic cell (%) / Post- apoptotic cell (%) / Pre- apoptotic cell (%): Annexin V and PI; for Dead cell (%): addition of apoptotic and necrotic cells
Procedure: The Figure 2 gives the flow cytometry images of K562 cells, undergoing pre-apoptosis, post-apoptosis and necrosis, which are dyed with Annexin V and PI, after being incubated with thiosemicarbazones of the invention for 72 hours. Herein the images are as follows; A) Control, B) Compound I (0.6µg/ml), C) Compound II (0.6µg/ml), D) […], and E) Compound IV (0.1µg/ml). […] The inventors have characterized cells treated with compounds I-IV in the conditions of Figure 2 in order to better observe the mechanism of action of thiosemicarbazones presented in the current invention.

[2] = K562, as listed in Table 3, rounded, the concentration applied in the flow cytometry
[3] = K562 cells, incubated for 72 hours

Compound | IC50 [1] [microgram/ml] | IC50 (K562 (leukaemia) cells; [2]) [µg/mL] | IC50 (K562 (leukaemia) cells; [3]) [microgram/ml] | DNA fragmentation % (ECV304) [%] | DNA fragmentation % (K562) [%] | Apoptosis / Necrosis ratio (K562 cells) | Living cell (%) (K562 cells) | Necrotic cell (%) (K562 cells) | Post- apoptotic cell (%) (K562 cells) | Pre- apoptotic cell (%) (K562 cells) | Dead cell (%) (K562 cells)
COc1ccc2c(c1)[O][Ni][O]c1c(O)cccc1C=NN=C(SC)N=C2 [Compound I, N(1)-3-hydroxysalicylidene-N(4)-4-methoxysalicylideneisothio-semicarbazidato Nickel (II)] | >5 | 0.6 | 0.61 | 20±0.5 | 80±1.4 | 13.56 | 35.18 | 2.57 | 27.39 | 34.85 | 64.82
Monochloro-N(1)-3--hydroxysalicylidene-N(4)-4-methox salicylideneisothiosemicarbazidato Iron (III) [Compound II] | >5 | 0.6 | 0.62 | 18±2.1 | 79±0.7 | 9.80 | 47.4 | 3.15 | 18.54 | 30.9 | 52.6
COc1ccc2c(c1)[O][Ni][O]c1cc(O)ccc1C=NN=C(SC)N=C2 [III, N(1)-4-hydroxysalicylidene-N(4)-4-methoxysalicylideneisothio-semicarbazidato Nickel (II)] | >5 | 0.6 | 0.65 | 22±1.7 | 75±1.4 | 11.82 | 36.11 | 3.17 | 23.23 | 37.5 | 63.89
COc1ccc2c(c1)[O][Fe]([Cl])[O]c1cc(O)ccc1C=NN=C(SC)N=C2 [Compound IV, Monochloro-N(1)-4-hydroxysalicylidene-N(4)-4-methoxy-salicylideneisothiosemicarbazidato Iron (III)] | >5 | 0.1 | 0.1 | 28±2.4 | 84±1.4 | 17.77 | 41.07 | 2.11 | 19.32 | 37.5 | 58.93
